Measured values from patent US20250127774A1, “COMPOUNDS FOR LABELLING NUCLEIC ACID AND USES THEREOF” (THE ROYAL INSTITUTION FOR THE ADVANCEMENT OF …, priority 2022, published 2025).
Where “and” joins values, the source holds several entries; their conditions need not be identical. Equal values may be shown once.

Columns and labels:
[1] = test system: duplex DNA containing VdU (vinyl-modified ODN); experiment: Kinetic measurements with ODNs (DNA-templated PINK-VdU reaction); conditions: 50 mM aq. NaOAc buffer pH 5.2 (0.8% DMSO)
Description: A) Relative fluorescence units (RFU) of PINK upon reaction with vinyl-modified ODN versus time. […] B) Normalized increase of fluorescence. C) Plot of the observed rates k′ against PINK concentration. The slope yields the rate constant k.
To characterize DNA-templated PINK-VdU reactions, a VdU-containing, palindromic 17-mer DNA oligonucleotide “ODN1” was synthesized (Table 1). The DMT-protected VdU phosphoramidite S4 (Scheme 2)^[51] was incorporated into the oligomer utilizing standard solid phase supported DNA synthesis. ODN1 was purified using reverse-phase HPLC and annealed with a complimentary strand to form a duplex. […] By tracking the fluorescence changes under pseudo-first order conditions (FIG. 8), an apparent rate constant k=590 M^−1 s^−1 was determined for the reaction between PINK and the duplex DNA containing VdU. […]
Kinetic Measurements with ODNs. Second-order rate constants for the reaction between vinyl-modified ODN and PINK were determined under pseudo first order conditions employing an excess of the tetrazine. […] Measurements were performed on a SpectraMax M5 plate reader (Molecular Devices, Sunnyvale, CA, USA) in 384 well plates (Greiner bio-one, cat-#871906; 40 μL per well). […] Samples were measured over the course of 1 h in intervals of 45 s. […] Reactions rates were calculated using pseudo first order approximations fitting the measurements to mono exponential equations. […]

calf thymus (CT) DNA = experiment: Binding affinity measurements of PINK with CT-DNA (absorbance changes at 575 nm); conditions: 10 μM PINK, CT-DNA 0-160 μM base pairs, 50 mM NaOAc buffer pH 5.2 (0.2% DMSO); 1 molecule per 5 base pairs; read-out: apparent dissociation constant (KD)
Protocol: B) Fluorescence changes (excitation: 500 nm, emission: 590 nm; 515 nm cutoff filter) of 20 μM PINK in the presence of 1 mM b.p. CT-DNA (50 eq) in PBS pH 7.4 (10% DMSO) followed by addition of 5-norbornene-2-methanol (2 mM, 100 eq).
To evaluate the ability of PINK (4) to undergo reversible intercalation into duplex DNA, the absorbance of PINK was monitored upon addition of calf-thymus (CT) DNA. Consistent with intercalation,^[42-44] a bathochromic shift in PINK absorbance was observed upon addition of CT DNA (FIG. 3, a). To further evaluate the binding mode, viscosity measurements of concentrated DNA solutions were conducted in presence of increasing amounts of PINK. […] By taking the maximum binding stoichiometry of PINK into account (1 molecule per 5 base pairs; see FIG. 1b), an apparent dissociation constant KD can be calculated according to KD=[(unbound PINK)*(unbound DNA binding sites)]/(PINK-bound binding sites).
Binding Affinity Measurements of PINK with CT-DNA. Binding of PINK to CT-DNA was assessed by monitoring changes of absorbance collecting measurements on a SpectraMax M5 plate reader (Molecular Devices, Sunnyvale, CA, USA) in 1 cm path-length quartz cuvettes. […] Binding of PINK to CT-DNA and determination of an apparent binding constant (KD) was calculated by plotting changes of absorbance at 575 nm.

[2] = Kinetic measurements with the VdU nucleoside (non-templated IEDDA reaction); conditions: 50 mM aq. NaOAc buffer pH 5.2 (27% DMSO)
Protocol: A) Fluorescence increase versus time upon mixing PINK with VdU. […] B) Normalized increase of fluorescence. C) Plot of the observed rates k′ versus PINK concentrations. The slope yields the rate constant k.
PINK (4) undergoes a highly fluorogenic and regioselective IEDDA reaction with VdU (5) to give “PINK-VdU-ox” (6) as a single isomer in a 76% isolated yield after 7d at 60° C. (Scheme 1). The slow rate of this non-templated reaction (Kapp=0.01 M^−1 s^−1, FIG. 5) is due to the combination of an unstrained terminal alkene and unactivated tetrazine.^[49] Over the course of the reaction, a ˜100-fold increase in fluorescence was observed (FIG. 3, c). […]
Kinetic Measurements with the VdU Nucleoside. Second order reaction rates between PINK and VdU were determined under pseudo first order conditions with a large excess of the dienophile over the tetrazine. […] Measurements were performed on a SpectraMax M5 plate reader (Molecular Devices, Sunnyvale, CA, USA) in 384 well plates (Greiner bio-one, cat-#871906; 50 μL per well; covered with 20 μL spectroscopic grade silicon oil to avoid evaporation). […] Samples were measured over 18 h in intervals of 10 min. […] Reactions rates were calculated using pseudo first order approximations fitting the measurements to mono exponential equations. The reported reaction rate is an arithmetic mean determined from three independent experiments.

SMILES: Cc1nnc(-c2ccc3cc4ccc(N(C)C)cc4nc3c2)nn1 [PINK]
- apparent rate constant k, reaction with duplex DNA containing VdU ([1]; 4 μM vinyl-modified ODN, PINK 3-5 eq): 590 M⁻¹ s⁻¹
- stability of PINK under control conditions (without vinyl-modified ODN) ([1]; 12-20 μM PINK, 1 h): full stability
- Kd (calf thymus (CT) DNA): 5 µM and 5.1 µM
- rate of non-templated reaction (Kapp) ([2]; 100 μM PINK, 1-5 mM VdU): 0.01 M⁻¹ s⁻¹
- stability of PINK under control conditions (0 mM VdU) ([2]; 18 h): full stability
